One experiment addresses T1, MAO-A (Homo sapiens, UniProt P21397).
T1 sequence (P21397 1-527): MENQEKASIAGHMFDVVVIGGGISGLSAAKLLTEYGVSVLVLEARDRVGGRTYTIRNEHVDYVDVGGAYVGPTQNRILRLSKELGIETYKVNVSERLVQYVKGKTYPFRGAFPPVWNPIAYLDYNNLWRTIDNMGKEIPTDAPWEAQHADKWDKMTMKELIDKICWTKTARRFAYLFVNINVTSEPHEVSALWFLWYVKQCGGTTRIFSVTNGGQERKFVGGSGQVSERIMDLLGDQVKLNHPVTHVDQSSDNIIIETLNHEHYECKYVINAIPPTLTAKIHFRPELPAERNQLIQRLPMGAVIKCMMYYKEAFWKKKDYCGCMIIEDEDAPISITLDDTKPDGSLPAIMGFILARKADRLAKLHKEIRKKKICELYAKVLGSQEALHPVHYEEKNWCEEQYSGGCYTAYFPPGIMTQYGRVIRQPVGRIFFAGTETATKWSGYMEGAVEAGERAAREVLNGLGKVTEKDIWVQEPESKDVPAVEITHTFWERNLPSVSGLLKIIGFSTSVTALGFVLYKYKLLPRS
The settings on record: cited from earlier work.

Experiment [1] relates to PC-9 non-small cell lung cancer cell line. Nature of the experiment: MTT viability assay, PC-9. Format: cell-based. The settings on record: 72 hours. As to the method: We utilized an MTT assay to determine the potency of the compounds for inhibiting cell growth. […] We next asked whether T151742 induced inhibition of cell growth was dependent on ERO1α expression. As shown in FIG. 6C two ERO1α deleted clones in the PC-9 cell line were isolated. Using an MTT assay to determine overall cellar viability, a non-targeted control (scramble), and both ERO1α knockout clones was subjected to treatment with T151742 for 72 hours (See FIG. 6D). […] Though only slight differences were observed between T151742 and EN-460 we tested the effects of these compounds in a clonogenic assay which is a better test for inhibition of self-renewal.
Cell Lines: PC-9 cell line used was obtained from Sigma Aldrich and grown in RPMI 1640 medium with 10% fetal bovine serum and 1% penicillin/streptomycin. HCC4006, U266, MM1.s, and Beas-2B cell lines were obtained from ATCC and cultured in either RPMI 1640 or DMEM with 10% fetal bovine serum and 1% penicillin/streptomycin. All cell lines were also checked for mycoplasma every six months and subjected to short tandem repeat (STR) analysis for cell line validation. CRISPR Cas9: CRISPR Guide RNA 2 targeting ERO1α and CRISPR Guide RNA 4 were purchased from Genscript in the pLentiCRISPR V2 plasmid containing puromycin/ampicillin selection marker. Lentivirus was made from HEK 293T cells by co-transfection with GuideRNA of interest, pVSVG, and pPAX2 plasmids. Lentivirus was collected after 48 hours and concentrated using 40% PEG8000. […] Plate was then read on the BioTek Cytation 5 at 530/590 nm. […] Plate was then read at 570 nm. Treated wells were all compared to DMSO control wells to calculate percent growth inhibition and the IC50 was calculated using GraphPad (log(inhibitor) vs growth inhibition). […] Images were then quantified using ImageJ. […] Cells were aliquoted at 1 million cells per PCR tube in PBS and heated in Bio-Rad T100 thermal cycler at indicated temperatures (RT, 46° C., 48° C., 50° C., 52° C., 54° C., 56°, 58° C., and 60° C.) for 3 minutes and aggregation temperature was determined by western blot analysis. […]
For orientation: Tetrazolium assays rely on reduction of a dye to a coloured formazan, in cell work by metabolically active cells.

The text below walks through data of patent US20250064773A1, “TARGETING ERO1 ALPHA WITH AURONE DERIVATIVES” (West Virginia University Board of Governors on behalf of …, priority 2021, published 2025).

The structures appear in SMILES notation. Like-named read-outs stand apart in the source and are kept apart here.

By IC50 is commonly meant the midpoint of a concentration-inhibition curve. With `CN(C)c1ccc(/C=C2\Oc3cc(O)ccc3C2=O)cc1` [Compound T151742], the “inhibition of / activity against MAO-A” value at MAO-A is “showed activity”. Also, the IC50 in experiment [1] (read-out: IC50, MTT assay, PC-9) was 14.1 ± 3.99 µM; in experiment [1] (non-targeted control (scramble), read-out: IC50, MTT assay, PC-9 WT), 14.1 µM.
